Experimental data as given in patent US20250289789A1, “REVERSIBLE LYSINE COVALENT MODIFIERS OF CDK2 AND USES THEREOF” (Terremoto Biosciences, Inc., priority 2023, published 2025).
Read-outs that look alike come from different tables or passages of the source.

Experiments:
Format in all cases: cell-based
[1] = target: T1, CDK4-NanoLuc fusion with CCND1 in 293T or 293 cells (Homo sapiens, UniProt P11802); experiment: NanoBRET Target Engagement (TE) Intracellular Kinase Assay, CDK4/CCND1; details: NanoBRET TE intracellular kinase assay, 2-hour incubation, read-out: NanoBRET-CDK4/D1 IC50
T1 construct: host or cells: 293T (ATCC CRL-3216) or 293 (ATCC CRL-1573)
T1 sequence (P11802 whole entry, the tested form may be a part): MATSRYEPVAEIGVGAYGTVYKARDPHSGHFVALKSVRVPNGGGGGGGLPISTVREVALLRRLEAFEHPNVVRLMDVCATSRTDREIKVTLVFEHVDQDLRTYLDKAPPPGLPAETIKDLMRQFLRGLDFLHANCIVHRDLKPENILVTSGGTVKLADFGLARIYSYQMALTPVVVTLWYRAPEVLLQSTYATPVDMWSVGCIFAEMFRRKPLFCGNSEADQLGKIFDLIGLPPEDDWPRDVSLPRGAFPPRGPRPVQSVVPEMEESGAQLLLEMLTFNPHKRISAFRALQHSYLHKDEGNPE
T1 sequence (P24385 whole entry partner, the tested form may be a part): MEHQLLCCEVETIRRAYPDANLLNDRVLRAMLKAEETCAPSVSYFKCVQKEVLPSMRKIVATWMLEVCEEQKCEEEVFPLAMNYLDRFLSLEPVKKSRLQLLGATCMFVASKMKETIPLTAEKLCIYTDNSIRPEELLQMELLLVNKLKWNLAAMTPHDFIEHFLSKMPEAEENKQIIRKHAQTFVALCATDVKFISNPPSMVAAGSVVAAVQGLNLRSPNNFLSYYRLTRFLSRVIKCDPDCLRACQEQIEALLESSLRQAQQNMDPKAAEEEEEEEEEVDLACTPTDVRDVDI
Description: (§1) Inhibitory effects of compounds were measured in NanoBRET TE Intracellular Kinase Assay. […] Cells were co-transfected with 1 μg/mL of CDK-NanoLuc Fusion Vector (Promega; NV2701 for CDK1, NV2781 for CDK2, NV2811 for CDK4, NV2841 for CDK6) and 1 μg/mL of the corresponding Cyclin Expression Vector (Promega; NV2601 for CCNB1, NV2641 for CCNE1, NV2621 for CCND1, NV2631 for CCND3) using FuGENE HD Transfection Reagent (Promega; E2311). […] 20 uL/well of 3× Intracellular TE Nano-Glo Substrate/Inhibitor (Promega; N2162) were added to 384-well plates and incubated for 3 minutes at room temperature. NanoBRET signals (donor emission wavelength at 450 nm, acceptor emission wavelength at 610 nm) were measured using Envision plate reader (PerkinElmer). NanoBRET ratio was calculated by: BRET Ratio=raw signal for acceptor/raw signal for donor. Dose response curve normalized to DMSO control was plotted using four-parameter logistic model for IC50 calculation.

[2] = target: T2, CDK2-NanoLuc fusion with CCNE1 in 293T or 293 cells (Homo sapiens, UniProt P24941); experiment: NanoBRET Target Engagement (TE) Intracellular Kinase Assay, CDK2/CCNE1; details: NanoBRET TE intracellular kinase assay, 2-hour incubation, read-out: NanoBRET-CDK2/E1 IC50
T2 construct: host or cells: 293T (ATCC CRL-3216) or 293 (ATCC CRL-1573)
Description: as §1

[3] = test system: Phospho-Rb Ser807/811 in OVCAR3 cells; experiment: OVCAR3 Phospho-Rb Ser807/811 HTRF assay; details: OVCAR3 cells, Phospho-Rb Ser807/811 HTRF, 1 hour incubation, read-out: pRb-OVCAR3 IC50
Description: Cells were trypsinized and resuspended in 1 mM hydroxyurea (Sigma; H8627), 90% RPMI and 10% fetal bovine serum. […] Dose response curve normalized to DMSO control was plotted using four-parameter logistic model for IC50 calculation.

SMILES	IC50 [1]	IC50 [2]	IC50 ([3]; Homo sapiens, OVCAR-3, 1 h)	IC50 [3]
COc1cc(O)c(C=O)c(O[C@H](C)C(=O)Nc2cc([C@H]3CC[C@@H](OC(=O)NC4(C)CC4)C3)[nH]n2)c1 [Compound 130, (1R,3S)-3-(3-((R)-2-(2-formyl-3-hydroxy-5-methoxyphenoxy)propanamido)-1H-pyrazol-5-yl)cyclopentyl (1-methylcyclopropyl)carbamate]	864 nM	3.69 nM	24.9 nM	
COc1cc(O)c(C=O)c(OCC(=O)Nc2cc([C@H]3CC[C@@H](OC(=O)N[C@@H]4C[C@@H]4F)C3)[nH]n2)c1 [Compound 133]	2800 nM	4.42 nM	19.6 nM	
COc1cc(O)c(C=O)c(OCC(=O)Nc2cc([C@H]3CC[C@@H](OC(=O)N4CC[C@H]4C#N)C3)[nH]n2)c1 (stereo in doubt) [Compound 126]	7310 nM	9.62 nM	75.7 nM	
COc1cc(O)c(C=O)c2c1C[C@@H](C(=O)Nc1cc([C@H]3CC[C@@H](OC(=O)NC(C)C)C3)[nH]n1)C2 [Compound 174, (1R,3S)-3-(3-((S)-4-formyl-5-hydroxy-7-methoxy-2,3-dihydro-1H-indene-2-carboxamido)-1H-pyrazol-5-yl)cyclopentyl isopropylcarbamate]	668 nM	3.26 nM	10.7 nM	
COc1cc(O)c(C=O)c(OCC(=O)Nc2cc([C@H]3CC[C@@H](OC(=O)N4CC[C@H](C#N)C4)C3)[nH]n2)c1 [Compound 152]	6990 nM	7.62 nM	30 nM	
COc1cc(O)c(C=O)c(OCC(=O)Nc2cc([C@H]3CC[C@@H](OC(=O)N(OC)C(C)C)C3)[nH]n2)c1 [Compound 171]	> 10000 nM	3.24 nM	107 nM	
COc1cc(O)c(C=O)c(OCC(=O)Nc2cc([C@H]3CC[C@@H](OC(=O)N4C[C@H]5C[C@@H]4CS5(=O)=O)C3)n[nH]2)c1 [Compound 118]	6480 nM	55.4 nM	101 nM	
COc1cc(O)c(C=O)c(OCC(=O)Nc2cc([C@H]3CC[C@@H](OC(=O)NCCC(F)(F)F)C3)[nH]n2)c1 [Compound 175]	8440 nM	2.11 nM	16.9 nM	
COc1cc(O)c(C=O)c(OCC(=O)Nc2cc([C@H]3CC[C@@H](OC(=O)N[C@H]4C[C@@H](C)C4)C3)[nH]n2)c1 [Compound 150]	3890 nM	2.27 nM	148 nM	
CCN(C(=O)O[C@@H]1CC[C@H](c2cc(NC(=O)COc3cc(OC)cc(O)c3C=O)n[nH]2)C1)C(C)C [Compound 169]	773 nM	2.27 nM	22.9 nM	
Cc1cc(O)c(C=O)c(OCC(=O)Nc2cc([C@H]3CC[C@@H](OC(=O)NC4(C#N)CC4)C3)[nH]n2)c1 [Compound 139]	3990 nM	12.9 nM	178 nM	
Cc1cc(O)c(C=O)c(OCC(=O)Nc2cc([C@H]3CC[C@@H](OC(=O)NC4(C)CC4)C3)[nH]n2)c1 [Compound 145]	4070 nM	3.46 nM	64.3 nM	
COc1cc(O)c(C=O)c(OCC(=O)Nc2cc([C@H]3CC[C@@H](OC(=O)NC[C@H]4CCO4)C3)[nH]n2)c1 [Compound 143]	> 10000 nM	13.1 nM	142 nM	
COc1cc(O)c(C=O)c(OCC(=O)Nc2cc([C@H]3CC[C@@H](OC(=O)NC4(CF)CC4)C3)[nH]n2)c1 [Compound 136]	1420 nM	2.22 nM	16.9 nM	
CCN(CC#N)C(=O)O[C@@H]1CC[C@H](c2cc(NC(=O)COc3cc(OC)cc(O)c3C=O)n[nH]2)C1 [Compound 147]	2260 nM	2.85 nM	13.8 nM	
COc1cc(O)c(C=O)c(OCC(=O)Nc2cc([C@H]3CC[C@@H](OC(=O)NCC#N)C3)[nH]n2)c1 [Compound 127]	8530 nM	25.9 nM	98.3 nM	
COc1cc(O)c(C=O)c(OCC(=O)Nc2cc([C@H]3CC[C@@H](OC(=O)NCc4ccccc4)C3)[nH]n2)c1 [Compound 170]	6040 nM	3.06 nM	70.6 nM	
COc1cc(O)c(C=O)c(OCC(=O)Nc2cc([C@H]3CC[C@@H](OC(=O)N[C@@H](C)CF)C3)[nH]n2)c1 [Compound 120]	2970 nM	2.64 nM	13.4 nM	
COc1cc(O)c(C=O)c(OCC(=O)Nc2cc([C@H]3CC[C@@H](OC(=O)N[C@H]4C[C@@H](C#N)C4)C3)[nH]n2)c1 [Compound 138]	5860 nM	4.71 nM	80.6 nM	
CCCONC(=O)O[C@@H]1CC[C@H](c2cc(NC(=O)COc3cc(OC)cc(O)c3C=O)n[nH]2)C1 [Compound 135]	> 10000 nM	3.41 nM	92.7 nM	
COc1cc(O)c(C=O)c(OCC(=O)Nc2cc([C@H]3CC[C@@H](OC(=O)N4CC5CC(C4)N5C)C3)[nH]n2)c1 [Compound 189]	> 10000 nM	159 nM	198 nM	

Second part, the compound after the results:

IC50 [1]	IC50 [2]	IC50 ([3]; Homo sapiens, OVCAR-3, 1 h)	IC50 [3]	SMILES
1200 nM	4.85 nM		27.3 nM	COc1cc(O)c(C=O)c(OCC(=O)Nc2cc([C@H]3CC[C@@H](OC(=O)NC4(C)CC4(F)F)C3)[nH]n2)c1 (single isomer, unassigned) [Compound 281, (1R,3S)-3-(3-(2-(2-formyl-3-hydroxy-5-methoxyphenoxy)acetamido)-1H-pyrazol-5-yl)cyclopentyl ((*)-2,2-difluoro-1-methylcyclopropyl)carbamate]
5820 nM	2.38 nM	29.5 nM		COc1cc(O)c(C=O)c(OCC(=O)Nc2cc([C@H]3CC[C@@H](OC(=O)N4NC5CCC4C5)C3)[nH]n2)c1 (stereo partly drawn) [Compound 273, (1R,3S)-3-(3-(2-(2-formyl-3-hydroxy-5-methoxyphenoxy)acetamido)-1H-pyrazol-5-yl)cyclopentyl 2,3-diazabicyclo[2.2.1]heptane-2-carboxylate]
4100 nM	4.7 nM	51 nM		CC1(NC(=O)O[C@@H]2CC[C@H](c3cc(Nc4nccc5c(C=O)c(O)ccc45)n[nH]3)C2)CC1 [Compound 261, (1R,3S)-3-(3-((5-formyl-6-hydroxyisoquinolin-1-yl)amino)-1H-pyrazol-5-yl)cyclopentyl (1-methylcyclopropyl)carbamate]
3360 nM	4.2 nM	57.4 nM		COCC(C)(C)NC(=O)O[C@@H]1CC[C@H](c2cc(NC(=O)COc3cc(OC)cc(O)c3C=O)n[nH]2)C1 [Compound 176]
> 10000 nM	6.25 nM		48.6 nM	COc1cc(O)c(C=O)c2c1CC(C(=O)Nc1cc([C@H]3C[C@@H](OC(=O)N(C)N(C)C)C3)n[nH]1)C2 (single isomer, unassigned) [Compound 270]
1980 nM	1.99 nM		123 nM	COc1cc(O)c(C=O)c2c1CC(C(=O)Nc1cc([C@H]3CC[C@@H](OC(=O)N4CCCCN4C)C3)[nH]n1)C2 (single isomer, unassigned) [Compound 266, (1R,3S)-3-(3-((*)-4-formyl-5-hydroxy-7-methoxy-2,3-dihydro-1H-indene-2-carboxamido)-1H-pyrazol-5-yl)cyclopentyl 2-methyltetrahydropyridazine-1(2H)-carboxylate]
735 nM	63.3 nM		7740 nM	COc1cc(O)c(C=O)c2c1CC(C(=O)Nc1cc([C@H]3CC[C@@H](OC(=O)N4CCCN4C)C3)[nH]n1)C2 (single isomer, unassigned) [Compound 263, (1R,3S)-3-(3-((*)-4-formyl-5-hydroxy-7-methoxy-2,3-dihydro-1H-indene-2-carboxamido)-1H-pyrazol-5-yl)cyclopentyl 2-methylpyrazolidine-1-carboxylate]
5000 nM	9.37 nM	37.8 nM		COc1cc(O)c(C=O)c(OCC(=O)Nc2cc([C@H]3CC[C@@H](OC(=O)N4CCN(C)CC4)C3)[nH]n2)c1 [Compound 195]
5300 nM	3.11 nM	35.7 nM		CCN(NC)C(=O)O[C@@H]1CC[C@H](c2cc(NC(=O)COc3cc(OC)cc(O)c3C=O)n[nH]2)C1 [Compound 275, (1R,3S)-3-(3-(2-(2-formyl-3-hydroxy-5-methoxyphenoxy)acetamido)-1H-pyrazol-5-yl)cyclopentyl 1-ethyl-2-methylhydrazine-1-carboxylate]
3350 nM	5.3 nM	20.4 nM		COc1cc(O)c(C=O)c2c1CC(C(=O)Nc1cc([C@H]3C[C@@H](OC(=O)NC(C)C)C3)[nH]n1)C2 (single isomer, unassigned) [Compound 282, (1R,3s)-3-(3-((*)-4-formyl-5-hydroxy-7-methoxy-2,3-dihydro-1H-indene-2-carboxamido)-1H-pyrazol-5-yl)cyclobutyl isopropylcarbamate]
